From patent US5443986A, “Enzymatic analysis using substrates that yield fluorescent precipitates” (Molecular Probes, Inc., priority 1993, dated 1995)

Key:
alkaline phosphatase [1] = biological target: T1, alkaline phosphatase (Bos taurus, UniProt P19111); assay: Detection of enzyme on non-denaturing gels after electrophoresis; format: biochemical
Protocol: 1 ). Detecting enzymes on native gels using precipitating substrates. Gel electrophoresis is a common method for identifying proteins in fluids and tissue homogenates. In native gel electrophoresis, the proteins retain their activity during the process of separation and thus can hypothetically be identified by activity assays. By incubating the native gel with various precipitating substrates specific for the analyte enzyme, one can identify whether the enzyme is present in the loaded sample. These methods are used for investigating the expression of both endogenous enzymes and enzyme-fusion proteins and for the detection of the enzyme in samples suspected of containing the enzyme. A protocol commonly used in these experiments is as follows:
1. The enzyme-containing sample is mixed with the sample buffer (0.075M TRIS-HCl in 50% glycerol, pH 6.8) to a concentration that is appropriate for loading the enzyme. The sample is loaded onto a 4-20% gradient acrylamide gel. The gel is run at 30 mA for approximately 30 minutes.
2. The gel is incubated in a buffer that is optimal for the enzyme being detected and that contains 1 mM of the substrate. For alkaline phosphatase the buffer used is 100 mM MOPS, 50 mM NaCl, 1 mM MgCl2, 0.1 mM ZnCl2, pH 7.5. The appearance of fluorescent bands is monitored using a hand-held ultraviolet lamp.
2). Comparing the sensitivity of enzyme detection using precipitating substrates versus standard Coomassie Blue detection. Decreasing amounts of alkaline phosphatase are loaded into the lanes of two gels. The amount of alkaline phosphatase loaded into each lane varies from […]. After electrophoresis, one gel is developed for visualization using standard Coomassie Blue-staining procedures; the other by incubation with 1 mM 8e as described above. The minimum detectable quantity of alkaline phosphatase using standard Coomassie Blue-staining methods is 1 μg. After incubation with 8e for 30 minutes, 1 ng of alkaline phosphatase is clearly visible using a handheld UV-lamp. After approximately 20 hours incubation, 0.25 ng of alkaline phosphatase can be visibly detected without any signal enhancement. These experiments indicate that incubation with the precipitating substrate provides a method for enzyme detection that is 4000 times more sensitive than standard Coomassie Blue-staining methods. […] Multiple proteins or extracts can be run in a single lane with only the enzyme specific for the synthetic substrate being detected by the staining.
Target sequence in this assay (P19111 20-506 limits assumed): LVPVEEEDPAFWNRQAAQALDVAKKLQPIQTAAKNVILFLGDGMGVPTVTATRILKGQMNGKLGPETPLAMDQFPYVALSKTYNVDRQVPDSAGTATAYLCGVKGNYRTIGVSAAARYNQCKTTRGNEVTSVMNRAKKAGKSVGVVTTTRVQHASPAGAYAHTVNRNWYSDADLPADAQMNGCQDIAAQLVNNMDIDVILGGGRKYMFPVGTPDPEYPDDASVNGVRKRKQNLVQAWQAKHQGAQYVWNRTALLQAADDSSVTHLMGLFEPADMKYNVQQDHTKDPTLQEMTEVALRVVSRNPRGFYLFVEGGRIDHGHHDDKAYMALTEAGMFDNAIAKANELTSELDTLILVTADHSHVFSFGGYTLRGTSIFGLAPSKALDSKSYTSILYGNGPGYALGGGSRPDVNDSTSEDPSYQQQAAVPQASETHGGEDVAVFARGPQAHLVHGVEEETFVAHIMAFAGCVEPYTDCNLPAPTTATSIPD

alkaline phosphatase [2] = biological target: T1, alkaline phosphatase; format: biochemical; set-up: mature GPI-type homodimer; details: 0.1M TRIS pH 10.3, 50 mM NaCl, 10 mM MgCl2, 0.1 mM ZnCl2; double-reciprocal plot
Protocol: As compared with other synthetic substrates, the fluorogenic precipitating substrates described in this invention normally have high enzymatic turnover rates and moderate affinities for the enzymes. Turnover rates of the substrates can be determined as in Example 10 and expressed as micromoles of product per minute per milligram protein (k2, in units of μmol·min^-1 ·mg^-1). The affinity of the substrate is determined by its dissociation constant, KM, in millimolar units. The enzymes can bind to and catalyze conversion of the soluble substrates into detectable reaction products that are apparently less soluble and will precipitate in aqueous solutions. The preferred detectable reaction products are fluorescent precipitates. The precipitation, however, and thus fluorescence, depends on the reaction product concentration or the initial substrate concentration used, as well as the ionization state of the product's phenol group. There are two parameters determining the precipitation, i.e. critical concentration (Mc) and pH dependence (pKa). A method for determination of these parameters is given in Example 11. Table 10 gives the relevant parameters for the enzymatic reaction and precipitation of quinazolinone-based alkaline phosphatase substrates.
4). Kinetic assay of some of the substrates. The specific activity (k2, in a unit of micromole per minute per milligram protein) and Michaelis constant (KM, in a unit of millimole) for hydrolysis of the substrates by the enzyme are listed in Table 10. All of the specific enzymatic reactions are made in the following buffers:
For alkaline phosphatase: 0.1M TRIS pH 10.3 containing 50 mM NaCl, 10 mM MgCl2 and 0.1 mM ZnCl2.
Because the kinetic assay involves variable amounts of precipitate with variable light scattering, measurement in the fluorometer as described above cannot be used here. Instead, a fluorescence plate reader with front-face measurement geometry such as the CytoFluor™ 2300 (Millipore, Bedford, Mass.) is preferred for quantitating the precipitate. The following protocol illustrates the kinetic assay.
4.1 ). In a 96-well plate, pipette 200 μL of a phosphatase substrate in the alkaline phosphatase reaction buffer with a final concentration of 2 to 6 mM, then add 50 μL 1 mg/mL alkaline phosphatase. […] Fluorescence of the precipitate is measured in the CytoFluor with appropriate sensitivity and excitation and emission settings as have been determined with the fluorometer. The fluorescence signal versus the amount of the precipitate is then established for each substrate.
4.2). […] Read the fluorescence of the resulting precipitate after 10 minutes reaction time and calculate the precipitate formation rate per minute by use of the determined fluorescence signal versus the amount of the precipitate. […]
Target sequence in this assay (P19111 20-506): as the sequence (P19111 20-506 limits assumed) above

SMILES: O=c1[nH]c(-c2cc(Cl)ccc2OP(=O)(O)O)nc2ccc(Cl)cc12 [8e, Ammonium 2-(5'-chloro-2'-phosphoryloxyphenyl)-6-chloro-4-(3H)-quinazolinone]
- quantity of alkaline phosphatase clearly visible on the gel (alkaline phosphatase [1]; 1 mM substrate, 30 minutes incubation, handheld UV-lamp): 1 ng
- quantity of alkaline phosphatase visibly detected on the gel (alkaline phosphatase [1]; 1 mM substrate, approximately 20 hours incubation, no signal enhancement): 0.25 ng
- sensitivity relative to standard Coomassie Blue-staining methods (alkaline phosphatase [1]; enzyme detection on gel): 4000 times
- staining of negative control lanes (alkaline phosphatase [1]; lanes loaded with 2-μg bovine serum albumin or 2-μg β-galactosidase): does not stain lanes
- k2 (specific activity, turnover rate) (alkaline phosphatase [2]): 618.60 µmol/min/mg
